The term IC50 denotes the midpoint of a concentration-inhibition curve.

This note sets out measurements from PMC3328449, “Inhibition of Diacylglycerol–Sensitive TRPC Channels by Synthetic and Natural Steroids” (PLoS ONE, 2012).

Data set [1] in a line: Solubility in perfusate (remark). The format is physicochemical. Conditions: aortic ring experiments; higher concentrations could not be tested.
The target in data set [2] is T1, mTRPC4ß (Mus musculus, UniProt Q9QUQ5).
T1 construct: expressed in transfected cells
T1 sequence (Q9QUQ5 1-890 isoform Q9QUQ5-2): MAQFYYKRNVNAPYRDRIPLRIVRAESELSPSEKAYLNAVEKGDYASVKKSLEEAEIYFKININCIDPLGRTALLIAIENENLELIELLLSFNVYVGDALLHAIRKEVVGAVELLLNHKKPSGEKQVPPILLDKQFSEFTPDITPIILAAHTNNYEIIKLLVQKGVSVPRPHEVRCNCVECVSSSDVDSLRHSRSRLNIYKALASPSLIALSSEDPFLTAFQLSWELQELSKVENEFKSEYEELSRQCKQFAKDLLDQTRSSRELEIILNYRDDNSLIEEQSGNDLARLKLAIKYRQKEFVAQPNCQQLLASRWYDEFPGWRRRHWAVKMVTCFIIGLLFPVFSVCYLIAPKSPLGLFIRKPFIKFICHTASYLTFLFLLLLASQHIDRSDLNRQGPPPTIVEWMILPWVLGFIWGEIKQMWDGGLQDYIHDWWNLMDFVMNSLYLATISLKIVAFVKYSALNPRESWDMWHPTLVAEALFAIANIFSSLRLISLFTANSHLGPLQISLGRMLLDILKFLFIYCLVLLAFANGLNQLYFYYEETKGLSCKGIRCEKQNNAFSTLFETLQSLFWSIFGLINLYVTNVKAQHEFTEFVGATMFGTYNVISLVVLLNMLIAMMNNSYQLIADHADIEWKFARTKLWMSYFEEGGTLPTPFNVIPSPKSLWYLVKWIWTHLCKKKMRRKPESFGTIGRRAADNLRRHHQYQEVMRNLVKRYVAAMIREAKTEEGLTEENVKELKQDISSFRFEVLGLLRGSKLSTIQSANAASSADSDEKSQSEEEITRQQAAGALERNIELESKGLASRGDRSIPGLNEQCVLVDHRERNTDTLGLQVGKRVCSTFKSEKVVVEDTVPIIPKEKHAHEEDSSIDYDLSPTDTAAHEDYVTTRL
Briefly: Trypsin-induced Ca2+ entry, fluo-4 fluorometric imaging plate reader, TRPC4 HEK-FITR cells. The format is cell-based. As to the method: Cells were grown at 37°C in a humidified atmosphere (5% or 7% CO2) under standard cell culture conditions. Stable human embryonic kidney (HEK) cell lines expressing recombinant mTRPC4ß (GenBank accession number AAC05178); mTRPC5 (GenBank accession number NM_009428) or hTRPC6 (GenBank accession number AF080394) under the control of a tetracycline-inducible promoter were generated using the Flp-In T-Rex (FITR) system (Invitrogen, Karlsruhe, Germany). […]
Cells grown to an almost confluent monolayer on black poly-D-lysine coated 96-well plates (Greiner, Frickenhausen, Germany) were washed with standard extracellular solution (140 mM NaCl, 1 mM MgCl2, 5.4 mM KCl, 2 mM CaCl2, 10 mM HEPES, 10 mM glucose, pH 7.35) and stained (30 min, room temperature) with dye solution (2 µM fluo-4 AM, 0.02% pluronic F127, 0.1% bovine serum albumin in standard extracellular solution). […] Fluo-4 fluorescence was excited at 488 nm with an argon laser and measured using a fluorometric imaging plate reader (Molecular Devices, Sunnyvale, USA). […]
TRPC4- and TRPC5-mediated Ca^2+ influx was stimulated by application of trypsin that activates endogenous Gq-coupled protease activated receptors in HEK cells. […] Compound effects were then calculated from the area under the curve and normalized to the Ca^2+ influx into trypsin-stimulated, non-compound-treated cells. […]

As for `C#C[C@]1(OC(C)=O)CC[C@H]2[C@@H]3CCC4=CC(=NO)CC[C@@H]4[C@H]3CC[C@@]21CC` (mixture of isomers) [norgestimate], the Solubility entry in data set [1] is given as “limited solubility”.
On to `CC(=O)[C@H]1CC[C@H]2[C@@H]3CCC4=CC(=O)CC[C@]4(C)[C@H]3CC[C@]12C` [progesterone], for which, in data set [2] (TRPC4 HEK-FITR cells, fluo-4, 200 nM trypsin, read-out: IC50, inhibition of trypsin-induced Ca2+ entry via TRPC4), the IC50 came out at 6.2 µM. Further, the “Hill slope n, inhibition of TRPC4-mediated Ca2+ entry” value in data set [2] (fit to Hill model) was 1.15.
